“And” between values parts separate entries of the source, which are not always exact repeats. Identical values can stand only once. Inconclusive results and toxic doses are left out.
Tested on: P388 leukemia ip, CD2F1 mice, survival T/C
Experiment: NCI In Vivo Anticancer Drug Screen. Data for tumor model P388 Leukemia (intraperitoneal) in CD2F1 (CDF1) mice
Conditions: endpoint: median survival time, higher = longer survival
Outline: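 Mice carrying the transplanted tumor received test compound or vehicle. Survival was recorded in each group, and the value is the treated-group measurement divided by that of the vehicle-treated control group.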

**Q.** For `COc1cc([C@@H]2c3cc4c(cc3[C@@H](OC3OC5COC(C)OC5C(O)C3O)[C@H]3COC(=O)[C@H]23)OCO4)cc(OC)c1O` (stereo partly specified), which T/C (dose: 1.0 mg/kg/injection, schedule: Q01DX009 (ip), vehicle: saline) is on record?
**A.** 181 % of control

**Q.** What about the T/C (dose: 2.0 mg/kg/injection, schedule: Q01DX009 (ip), vehicle: saline) of the same molecule?
**A.** 183 % of control and 217 % of control

**Q.** What about the T/C (dose: 4.0 mg/kg/injection, schedule: Q01DX001 (ip), vehicle: saline with Tween-80) of the same molecule?
**A.** 153 % of control

**Q.** What about the T/C (dose: 4.0 mg/kg/injection, schedule: Q01DX009 (ip), vehicle: saline) of the same molecule?
**A.** 241 % of control and 300 % of control

**Q.** And the T/C (dose: 5.0 mg/kg/injection, schedule: Q04DX003 (ip), vehicle: saline with Tween-80)?
**A.** 122 % of control

**Q.** And the T/C (dose: 6.24 mg/kg/injection, schedule: Q04DX003 (ip), vehicle: water)?
**A.** 177 % of control

**Q.** What about the T/C (dose: 6.48 mg/kg/injection, schedule: Q04DX003 (ip), vehicle: water) of the same molecule?
**A.** 178 % of control and 219 % of control

**Q.** And the T/C (dose: 7.78 mg/kg/injection, schedule: Q04DX003 (ip), vehicle: water)?
**A.** 212 % of control

**Q.** And the T/C (dose: 8.0 mg/kg/injection, schedule: Q01DX001 (ip), vehicle: saline with Tween-80)?
**A.** 164 % of control

**Q.** What about the T/C (dose: 8.0 mg/kg/injection, schedule: Q01DX001 (ip), vehicle: saline) of the same molecule?
**A.** 180 % of control

**Q.** What about the T/C (dose: 8.0 mg/kg/injection, schedule: Q01DX001 (ip), vehicle: water) of the same molecule?
**A.** 162 % of control and 168 % of control

**Q.** And the T/C (dose: 8.0 mg/kg/injection, schedule: Q08DX002 (ip), vehicle: saline)?
**A.** 207 % of control

**Q.** And the T/C (dose: 10.0 mg/kg/injection, schedule: Q04DX002 (ip), vehicle: suspension in saline)?
**A.** 162 % of control

**Q.** And the T/C (dose: 10.0 mg/kg/injection, schedule: Q04DX003 (ip), vehicle: saline with Tween-80)?
**A.** 174 % of control and 190 % of control

**Q.** And the T/C (dose: 10.4 mg/kg/injection, schedule: Q04DX003 (ip), vehicle: clinical formulation)?
**A.** 247 % of control

**Q.** And the T/C (dose: 10.4 mg/kg/injection, schedule: Q04DX003 (ip), vehicle: water)?
**A.** 213 % of control

**Q.** And the T/C (dose: 10.8 mg/kg/injection, schedule: Q04DX002 (ip), vehicle: water)?
**A.** 243 % of control

**Q.** What about the T/C (dose: 10.8 mg/kg/injection, schedule: Q04DX003 (ip), vehicle: water) of the same molecule?
**A.** 211 % of control and 281 % of control

**Q.** And the T/C (dose: 12.0 mg/kg/injection, schedule: Q04DX003 (ip), vehicle: saline)?
**A.** 211 % of control

**Q.** What about the T/C (dose: 13.0 mg/kg/injection, schedule: Q04DX002 (ip), vehicle: Klucel (hydroxypropylcellulose) (HPC)) of the same molecule?
**A.** 240 % of control

**Q.** What about the T/C (dose: 13.0 mg/kg/injection, schedule: Q04DX003 (ip), vehicle: water) of the same molecule?
**A.** 234 % of control

**Q.** What about the T/C (dose: 16.0 mg/kg/injection, schedule: Q08DX002 (ip), vehicle: saline) of the same molecule?
**A.** 240 % of control

**Q.** What about the T/C (dose: 17.3 mg/kg/injection, schedule: Q04DX003 (ip), vehicle: clinical formulation) of the same molecule?
**A.** 276 % of control

**Q.** And the T/C (dose: 17.3 mg/kg/injection, schedule: Q04DX003 (ip), vehicle: water)?
**A.** 272 % of control

**Q.** What about the T/C (dose: 18.0 mg/kg/injection, schedule: Q04DX002 (ip), vehicle: water) of the same molecule?
**A.** 264 % of control

**Q.** What about the T/C (dose: 18.0 mg/kg/injection, schedule: Q04DX003 (ip), vehicle: Klucel (hydroxypropylcellulose) (HPC)) of the same molecule?
**A.** 320 % of control and 576 % of control

**Q.** And the T/C (dose: 20.0 mg/kg/injection, schedule: Q04DX002 (ip), vehicle: suspension in saline)?
**A.** 167 % of control

**Q.** And the T/C (dose: 20.0 mg/kg/injection, schedule: Q04DX003 (ip), vehicle: saline with Tween-80)?
**A.** 183 % of control and 190 % of control

**Q.** What about the T/C (dose: 21.6 mg/kg/injection, schedule: Q04DX002 (ip), vehicle: Klucel (hydroxypropylcellulose) (HPC)) of the same molecule?
**A.** 280 % of control

**Q.** What about the T/C (dose: 21.6 mg/kg/injection, schedule: Q04DX002 (ip), vehicle: water) of the same molecule?
**A.** 235 % of control

**Q.** What about the T/C (dose: 21.6 mg/kg/injection, schedule: Q04DX003 (ip), vehicle: water) of the same molecule?
**A.** 398 % of control

**Q.** What about the T/C (dose: 27.0 mg/kg/injection, schedule: Q04DX003 (ip), vehicle: Klucel (hydroxypropylcellulose) (HPC)) of the same molecule?
**A.** 436 % of control and 567 % of control

**Q.** And the T/C (dose: 28.8 mg/kg/injection, schedule: Q04DX003 (ip), vehicle: clinical formulation)?
**A.** 419 % of control

**Q.** And the T/C (dose: 28.8 mg/kg/injection, schedule: Q04DX003 (ip), vehicle: water)?
**A.** 304 % of control

**Q.** And the T/C (dose: 30.0 mg/kg/injection, schedule: Q04DX002 (ip), vehicle: water)?
**A.** 441 % of control

**Q.** And the T/C (dose: 30.0 mg/kg/injection, schedule: Q04DX003 (ip), vehicle: water)?
**A.** 333 % of control and 358 % of control

**Q.** And the T/C (dose: 32.0 mg/kg/injection, schedule: Q08DX002 (ip), vehicle: saline)?
**A.** 285 % of control

**Q.** And the T/C (dose: 36.0 mg/kg/injection, schedule: Q04DX002 (ip), vehicle: Klucel (hydroxypropylcellulose) (HPC))?
**A.** 290 % of control

**Q.** What about the T/C (dose: 36.0 mg/kg/injection, schedule: Q04DX002 (ip), vehicle: water) of the same molecule?
**A.** 445 % of control

**Q.** What about the T/C (dose: 36.0 mg/kg/injection, schedule: Q04DX003 (ip), vehicle: water) of the same molecule?
**A.** 416 % of control

**Q.** And the T/C (dose: 40.0 mg/kg/injection, schedule: Q04DX002 (ip), vehicle: suspension in saline)?
**A.** 218 % of control

**Q.** What about the T/C (dose: 40.0 mg/kg/injection, schedule: Q04DX003 (ip), vehicle: Klucel (hydroxypropylcellulose) (HPC)) of the same molecule?
**A.** 436 % of control and 576 % of control

**Q.** What about the T/C (dose: 40.0 mg/kg/injection, schedule: Q04DX003 (ip), vehicle: saline with Tween-80) of the same molecule?
**A.** 223 % of control and 257 % of control

**Q.** What about the T/C (dose: 50.0 mg/kg/injection, schedule: Q04DX002 (ip), vehicle: water) of the same molecule?
**A.** 372 % of control

**Q.** What about the T/C (dose: 60.0 mg/kg/injection, schedule: Q04DX002 (ip), vehicle: water) of the same molecule?
**A.** 354 % of control

**Q.** And the T/C (dose: 60.0 mg/kg/injection, schedule: Q04DX003 (ip), vehicle: Klucel (hydroxypropylcellulose) (HPC))?
**A.** 576 % of control

**Q.** And the T/C (dose: 60.0 mg/kg/injection, schedule: Q04DX003 (ip), vehicle: water)?
**A.** 416 % of control

**Q.** What about the T/C (dose: 64.0 mg/kg/injection, schedule: Q01DX005 (ip), vehicle: saline) of the same molecule?
**A.** 105 % of control and 86 % of control and 88 % of control

**Q.** What about the T/C (dose: 64.0 mg/kg/injection, schedule: Q08DX002 (ip), vehicle: saline) of the same molecule?
**A.** 247 % of control

**Q.** And the T/C (dose: 83.3 mg/kg/injection, schedule: Q04DX002 (ip), vehicle: water)?
**A.** 441 % of control

**Q.** What about the T/C (dose: 96.0 mg/kg/injection, schedule: Q01DX001 (ip), vehicle: water) of the same molecule?
**A.** 238 % of control and 329 % of control

**Q.** And the T/C (dose: 100.0 mg/kg/injection, schedule: Q04DX002 (ip), vehicle: Klucel (hydroxypropylcellulose) (HPC))?
**A.** 89 % of control

**Q.** And the T/C (dose: 100.0 mg/kg/injection, schedule: Q04DX002 (ip), vehicle: water)?
**A.** 445 % of control

**Q.** What about the T/C (dose: 128.0 mg/kg/injection, schedule: Q01DX001 (ip), vehicle: saline with Tween-80) of the same molecule?
**A.** 77 % of control and 89 % of control

**Q.** And the T/C (dose: 128.0 mg/kg/injection, schedule: Q08DX002 (ip), vehicle: saline)?
**A.** 98 % of control

**Q.** Which T/C (dose: 25.0 mg/kg/injection, schedule: Q01DX005 (ip), vehicle: saline with Tween-80) does the source give for `Cc1c(COC(=O)NC(C)C)c(COC(=O)NC(C)C)c2n1CS(=O)(=O)C2` here?
**A.** 159 % of control

**Q.** And the T/C (dose: 50.0 mg/kg/injection, schedule: Q01DX005 (ip), vehicle: saline with Tween-80)?
**A.** 184 % of control and 188 % of control

**Q.** What about the T/C (dose: 100.0 mg/kg/injection, schedule: Q01DX005 (ip), vehicle: saline with Tween-80) of the same molecule?
**A.** 218 % of control

**Q.** With `NC(N)=NC(N)=Nc1ccc(-c2ccc(N=C(N)N=C(N)N)cc2)cc1` as the molecule, how does the T/C (dose: 3.13 mg/kg/injection, schedule: Q01DX009 (ip), vehicle: saline with Tween-80) read?
**A.** 108 % of control

**Q.** What about the T/C (dose: 6.25 mg/kg/injection, schedule: Q01DX009 (ip), vehicle: saline with Tween-80) of the same molecule?
**A.** 106 % of control

**Q.** How did the T/C (dose: 50.0 mg/kg/injection, schedule: Q01DX009 (ip), vehicle: saline with Tween-80) turn out when `CC(=O)OC1=C2OC(=O)C3(C2C=CC=C1)C1C=CC=CC13` (stereo unspecified) was run?
**A.** 97 % of control

**Q.** What about the T/C (dose: 100.0 mg/kg/injection, schedule: Q01DX009 (ip), vehicle: saline with Tween-80) of the same molecule?
**A.** 97 % of control

**Q.** What about the T/C (dose: 200.0 mg/kg/injection, schedule: Q01DX009 (ip), vehicle: saline with Tween-80) of the same molecule?
**A.** 111 % of control

**Q.** What does the source list for `CNc1ccccc1C(=O)NCCCN`?
**A.** T/C (dose: 50.0 mg/kg/injection, schedule: Q01DX005 (ip), vehicle: Klucel (hydroxypropylcellulose) (HPC)): 98 % of control; T/C (dose: 100.0 mg/kg/injection, schedule: Q01DX005 (ip), vehicle: Klucel (hydroxypropylcellulose) (HPC)): 95 % of control; T/C (dose: 200.0 mg/kg/injection, schedule: Q01DX005 (ip), vehicle: Klucel (hydroxypropylcellulose) (HPC)): 95 % of control

Source: PubChem BioAssay AID330 (DTP/NCI, 2004)
